# Results as given in US8455523B2, “Compositions and methods for treating hyperlipidemias” (The Research Foundation of State University of New York, priority 2010, dated 2013).
# How the values were obtained:
# guinea pigs = conditions: cited from earlier work
# [1] = system: hepatic mRNA of ER stress, inflammation and lipid metabolism genes; assay: Hepatic mRNA quantification (qPCR, XBP-1 splicing) in treated mice; type: in vivo; conditions: liver
# From the text: FIGS. 6a and 6b. Liver samples from FIG. 16 were used to isolate total mRNA and to quantify expression of different candidate genes. Statistical analyses were as described in FIGS. 16-17.
# FIGS. 9a and 9b. C57B/6J mice were fed a western diet for 8 weeks and then treated with MTP inhibitor and other indicated compounds for 8 days as described in FIG. 16. Liver samples were used to isolate mRNA and to quantify mRNA levels with different candidate genes. Stars on MTPi group represent comparison with the control group.
# FIG. 16. Age matched wildtype C57/BL6J animals chow fed animals were treated with DMSO (control) or MTP inhibitor (MTPi) for one week. Age matched wildtype C57/BL6J were fed WD for one month and were administered MTPi, Lovastatin, (Lova), Pioglitazone (Pio) or 4-phenylbutyric acid (PBA) every day for one week. All drugs were administered by oral gavage. Animals were sacrificed on day 7 and livers were harvested. mRNA was extracted and subjected to qPCR analysis. * represent comparison DMSO control; # represent comparisons to WD control; @ represent comparisons to WD MTP inhibitor treated animals.
# mRNA quantifications and primers used: Total RNA from tissues and cells were isolated using TriZol™ (Invitrogen). The purity and integrity of RNA were assessed by the A260/A280 ratio and 1% agarose gel electrophoresis, respectively. Only the RNAs with ratios more than 1.7 were used for cDNA synthesis. The first strand cDNA was synthesized using Omniscript RT (Qiagen) kit. Briefly, 2 μg of total RNA, 1 μM random primers (Invitrogen), 0.5 mM dNTP solution, and 0.5 U/μl Omniscript Reverse Transcriptase were incubated at 37° C. for 1 h in 20 μl of RT buffer and the reaction was terminated by incubating at 95° C. for 5 minutes. Each reaction of quantitative RT-PCR was carried out in a volume of 20 μl consisting of 5 μl cDNA sample (1:100 dilution of the first strand cDNA sample) and 15 μl of PCR master mix solution containing 1×PCR reaction buffer, 6 mM MgCl2, 200 nM primer pair, 0.025 U/μl HotStar Gold™ DNA polymerase, 200 μM dNTP solution, and 0.3 μl SYBR Green I solution (gPCR™ Core Kit for SYBR Green I, Eurogentec). The PCR was carried out by incubating the reaction mixture first for 10 minute at 95° C. followed by 40 cycles of 15 sec incubations at 95° C. and 1 min at 60° C. in the ABI 7000 SDS PCR machine. The data were analyzed using ΔΔCT method according to manufacturer's instruction and presented as arbitrary units. The primers used in this study were designed with the PrimerExpress 3.0 software (Applied Biosystems, CA) and are presented as Table 1.
# [2] = system: C57Bl/6J mice fed either a chow or western diet; assay: MTP inhibitor BMS-212122-01 with or without lovastatin, pioglitazone or PBA in chow or western diet fed C57Bl/6J mice; type: in vivo; conditions: WD one month
# Description: FIG. 13. Age matched wildtype C57/Bl6J animals chow fed animals were treated with DMSO (control) or MTP inhibitor (MTPi) for one week. […] All drugs were administered by oral gavage. Animals were sacrificed on day 7 and plasma and livers were harvested and analyzed. * represent comparison to DMSO control; # represent comparisons to WD control; @ represent comparisons to WD MTP inhibitor treatment.
# FIG. 18. Age matched wildtype C57/BL6J were fed WD for one month and were administered MTPi, or 4-phenylbutyric acid (PBA) everyday for one week. All drugs were administered by oral gavage. Animals were sacrificed on day 7 and livers were harvested. * represent comparison DMSO control; # represent comparisons to HF MTP inhibitor treated animals.
# (§1) C57BL/6J Black 6 mice (stock number 000664) were obtained from Jackson Laboratory and used for chow fed and western diet fed experiments. MTP inhibitor (BMS […]) (1 mg/kg/day), Lovastatin, Pioglitazone (Toronto Research Chemicals P471000) (25 mg/kg/day) and 4-phenylbutyric acid (Calbiochem 820986) (1 g/kg/day) were administered by oral gavage. Chow fed animals were treated for one week with either DMSO or MTP inhibitor. Western diet fed animals were fed DMSO, MTP inhibitor, Pioglitazone, MTP inhibitor+Pioglitazone, Lovastatin, MTP inhibitor+Lovastatin, 4-phenylbutyric acid, and MTP inhibitor+4-phenylbutyric acid. Chow fed animals were also injected with either PBS or Tunicamycin and animals were sacrificed at 4, 8, 12 and 24 hours.
# All animals were kept in 07:00-19:00 h lighting schedule. […] Food was withdrawn 16 h before the sacrifice of the mice. On the day of the experiment, mice were anesthetized and blood was collected from the heart. Liver was collected, washed in ice-cold PBS, cut into small pieces and used for lipid extraction, histological staining, to measure different protein activities/quantities and for mRNA analysis. Lipids were extracted from the tissue homogenates following the Bligh and Dyer method. Triglyceride (Infinity TM Triglyceride, TR22421) and total cholesterol (Infinity TM Cholesterol, TR13421) levels in the tissues were determined using commercial kits (Thermo Scientific). Free cholesterol and free fatty acid levels were measured using kits from Wako Chemicals (Germany). Esterified cholesterol was calculated by subtracting the free cholesterol from the total cholesterol.
# We next studied the effects of chemical inhibition of MTP in C57Bl/6J mice fed either a chow or western diet (WD) for 5 weeks. Chow fed animals were orally gavaged with either DMSO or MTP inhibitor BMS-212122-01 (MTPi; 1 mg/kg/day) for one week. WD fed animals were treated with DMSO, MTP inhibitor with or without lovastatin (50 mg/kg/day) or pioglitazone (25 mg/kg/day) daily by oral gavage for one week.
# [3] = in vivo; cited from earlier work
# MTP [4] = target: MTP (Homo sapiens, UniProt P55157); conditions: cited from earlier work
# Chain of MTP (Homo sapiens, UniProt P55157) (P55157 19-894, species assumed): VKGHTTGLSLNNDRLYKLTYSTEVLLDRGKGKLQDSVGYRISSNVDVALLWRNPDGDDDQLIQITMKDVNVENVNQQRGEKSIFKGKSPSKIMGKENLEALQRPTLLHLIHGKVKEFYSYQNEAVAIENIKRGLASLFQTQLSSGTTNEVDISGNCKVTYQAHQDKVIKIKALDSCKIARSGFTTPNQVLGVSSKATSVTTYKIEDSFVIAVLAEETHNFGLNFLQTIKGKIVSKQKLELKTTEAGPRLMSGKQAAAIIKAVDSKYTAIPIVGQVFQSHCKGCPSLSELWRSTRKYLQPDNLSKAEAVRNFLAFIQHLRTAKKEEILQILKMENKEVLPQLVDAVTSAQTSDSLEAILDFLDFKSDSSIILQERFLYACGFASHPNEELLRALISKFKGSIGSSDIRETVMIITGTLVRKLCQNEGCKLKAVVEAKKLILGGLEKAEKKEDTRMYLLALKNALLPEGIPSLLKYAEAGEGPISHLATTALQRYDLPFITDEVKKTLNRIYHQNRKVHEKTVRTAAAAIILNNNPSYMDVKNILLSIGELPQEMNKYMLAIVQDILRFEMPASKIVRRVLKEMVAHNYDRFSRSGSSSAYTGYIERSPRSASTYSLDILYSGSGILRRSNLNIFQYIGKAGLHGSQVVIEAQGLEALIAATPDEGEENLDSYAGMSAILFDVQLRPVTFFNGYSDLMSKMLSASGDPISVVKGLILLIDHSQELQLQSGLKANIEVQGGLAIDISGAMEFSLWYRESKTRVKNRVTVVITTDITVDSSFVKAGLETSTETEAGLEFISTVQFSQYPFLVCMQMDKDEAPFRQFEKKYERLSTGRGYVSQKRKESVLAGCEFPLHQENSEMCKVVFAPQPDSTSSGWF
# Chain of MTP (Homo sapiens, UniProt P55157) (P07237 18-508 partner, species assumed): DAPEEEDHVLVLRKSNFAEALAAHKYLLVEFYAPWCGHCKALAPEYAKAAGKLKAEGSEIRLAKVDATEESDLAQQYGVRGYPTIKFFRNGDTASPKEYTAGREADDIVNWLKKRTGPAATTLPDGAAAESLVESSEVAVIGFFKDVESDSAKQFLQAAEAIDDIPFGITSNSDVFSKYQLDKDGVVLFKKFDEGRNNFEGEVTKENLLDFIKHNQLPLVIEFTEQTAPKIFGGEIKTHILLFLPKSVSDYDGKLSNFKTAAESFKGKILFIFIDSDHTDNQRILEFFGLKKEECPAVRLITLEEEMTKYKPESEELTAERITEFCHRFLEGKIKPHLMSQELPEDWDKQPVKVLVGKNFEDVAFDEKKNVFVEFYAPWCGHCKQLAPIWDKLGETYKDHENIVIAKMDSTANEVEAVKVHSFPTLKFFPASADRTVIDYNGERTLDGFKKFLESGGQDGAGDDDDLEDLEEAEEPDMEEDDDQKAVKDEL
# MTP [5] = target: T1, MTP (Mus musculus, UniProt O08601); assay: Determination of MTP activity in tissues (liver homogenates of treated mice); type: in vivo; conditions: chow fed C57/BL6J, IP tunicamycin, 4-24 hours
# T1 construct: small pieces (0.1 g) of liver and ˜1-cm segments of proximal small intestine were homogenized; from tissue; host or cells: mouse liver (C57BL/6J; Reversa mice in some experiments); supernatant of ultracentrifuged homogenate
# T1 sequence (O08601 22-894): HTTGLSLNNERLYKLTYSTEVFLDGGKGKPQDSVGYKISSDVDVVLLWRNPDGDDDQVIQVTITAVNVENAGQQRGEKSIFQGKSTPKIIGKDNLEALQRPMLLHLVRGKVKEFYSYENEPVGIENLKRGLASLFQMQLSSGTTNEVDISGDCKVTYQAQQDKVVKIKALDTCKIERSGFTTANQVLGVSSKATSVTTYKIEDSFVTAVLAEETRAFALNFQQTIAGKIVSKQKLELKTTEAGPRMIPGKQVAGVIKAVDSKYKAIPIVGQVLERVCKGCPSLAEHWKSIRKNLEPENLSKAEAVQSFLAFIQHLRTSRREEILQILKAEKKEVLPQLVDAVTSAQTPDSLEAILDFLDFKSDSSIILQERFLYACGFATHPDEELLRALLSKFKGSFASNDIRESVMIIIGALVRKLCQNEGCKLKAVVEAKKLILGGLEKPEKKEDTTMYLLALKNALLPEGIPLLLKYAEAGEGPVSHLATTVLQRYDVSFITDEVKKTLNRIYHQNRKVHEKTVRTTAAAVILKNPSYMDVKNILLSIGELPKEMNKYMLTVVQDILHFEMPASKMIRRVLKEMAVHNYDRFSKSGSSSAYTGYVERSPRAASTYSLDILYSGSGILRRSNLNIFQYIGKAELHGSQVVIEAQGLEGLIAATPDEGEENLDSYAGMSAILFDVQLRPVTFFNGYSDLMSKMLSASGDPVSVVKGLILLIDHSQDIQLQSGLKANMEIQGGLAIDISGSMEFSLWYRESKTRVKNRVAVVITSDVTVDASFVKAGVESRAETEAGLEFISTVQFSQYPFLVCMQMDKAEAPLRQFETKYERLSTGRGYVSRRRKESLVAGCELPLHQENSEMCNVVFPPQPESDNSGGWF
# T1 sequence (P09103 21-509 partner limits assumed): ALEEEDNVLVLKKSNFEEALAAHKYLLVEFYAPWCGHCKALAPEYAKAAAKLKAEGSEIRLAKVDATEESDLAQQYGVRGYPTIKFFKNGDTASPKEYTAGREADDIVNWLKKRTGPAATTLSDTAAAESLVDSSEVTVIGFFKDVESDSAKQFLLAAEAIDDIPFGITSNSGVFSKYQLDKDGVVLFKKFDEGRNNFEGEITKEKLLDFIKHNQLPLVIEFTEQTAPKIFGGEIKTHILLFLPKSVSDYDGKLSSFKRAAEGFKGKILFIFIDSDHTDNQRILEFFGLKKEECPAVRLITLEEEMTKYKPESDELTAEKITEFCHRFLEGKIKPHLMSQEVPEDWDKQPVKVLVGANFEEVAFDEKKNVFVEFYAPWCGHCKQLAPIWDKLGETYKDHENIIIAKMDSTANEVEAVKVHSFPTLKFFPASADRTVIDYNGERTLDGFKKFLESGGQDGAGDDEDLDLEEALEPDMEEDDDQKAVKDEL
# Description: After extensive washes with ice-cold PBS, small pieces (0.1 g) of liver and ˜1-cm segments of proximal small intestine were homogenized with 1 ml of ice-cold 1 mM Tris-HCl, pH 7.6, 1 mM EGTA, and 1 mM MgCl2 buffer in a glass homogenizer. The homogenates were centrifuged (SW55 Ti rotor, 50,000 rpm, 10° C., 1 h), and supernatants were used for MTP assay as described before (41; 42) using a kit (Chylos, Inc.).
# C57Bl/6J mice = assay: ER stress induction by tunicamycin in mice: plasma AST/ALT and lipids; type: in vivo
# Description: FIG. 10. Effect of tunicamycin on plasma ALT/AST levels. W iid type mice were injected intraperitoneally with 1 mg/kg tunicamycin. Plasma were collected after 48 h and used to measure enzyme activities.
# FIG. 17. Age matched wildtype C57/BL6J animals chow fed animals were injected via IP with either PBS or Tunicamycin. Animals were sacrificed at 4, 8, 12 and 24 hours. Plasma and livers were collected and mRNA extracted from liver samples.
# To determine whether ER stress itself would increase plasma AST/ALT, C57Bl/6J mice were injected with tunicamycin (1 mg/kg) as described before. Plasma AST/ALT levels were measured after 36 h (FIG. 10). […] We will be measuring cellular lipid to determine whether tunicamycin affects hepatic lipid levels as well as mRNA and protein levels of different candidate genes involved in ER stress pathway.
# as §1
# [6] = chow fed C57/BL6J, IP, 4-24 hours
compound,measurement,setting,value
CCOC(=O)C(COC(=O)Cc1ccc(NC(=O)c2ccccc2-c2ccc(C(F)(F)F)cc2)c(C(=O)N(C)C)c1)(C(=O)OCC)c1ccccc1 [JTT-130],hepatic triglyceride,guinea pigs,without increasing
same,plasma triglyceride and LDL cholesterol,guinea pigs,lower
"O=C(O)CCCc1ccccc1 [PBA, 4-phenylbutyric acid]",mRNA levels of ER stress markers vs MTPi treated animals,[1]; PBA with MTPi,significantly lower
same,hepatic triglycerides and free cholesterol (hepatic lipids),[2]; MTPi ± PBA one week,did not reduce
same,"MTP activity, hepatic and plasma lipids","[2]; PBA 1 g/kg/day alone or co-administered with MTP inhibitor, one week",no effect
same,rises in plasma AST/ALT after MTP inhibition,"[2]; PBA 1 g/kg/day with MTP inhibitor, one week",spared increases
COc1cccc(C(=O)Nc2ccc3c(c2)CCN(C(=O)Oc2ccccc2)C3)c1-c1ccc(C(F)(F)F)cc1 [SLx-4090],plasma lipids,[3],lower
O=C1c2c(O)cc(O)cc2OC(c2ccc(O)c(O)c2)C1O (stereo not shown) [Taxifolin],cellular lipids,MTP [4],without increasing
same,triglyceride synthesis and MTP activity,MTP [4],inhibits
tunicamycin,hepatic MTP activity,MTP [5],no effect
same,XBP-1 splicing assay,[1]; tunicamycin IP,revealed the spliced form of XBP-1
same,"mRNA expression of ER stress markers Bip, Ire1α and CHOP",[1]; tunicamycin IP time course,elevations
same,Plasma AST/ALT levels,"C57Bl/6J mice; 1 mg/kg injected, measured after 36 h",significantly enhanced
same,plasma AST/ALT vs PBS injected animals,C57Bl/6J mice; 24 hours after injection,still significantly elevated
same,increase of plasma AST/ALT,C57Bl/6J mice; acute induction of ER stress,2.5 fold
same,time of peak plasma AST/ALT levels after injection,"C57Bl/6J mice; chow fed C57/BL6J, IP",8 h
same,hepatic lipids,C57Bl/6J mice; [6],increased
same,plasma cholesterol and triglycerides,C57Bl/6J mice; [6],lowered
same,plasma transaminases,"C57Bl/6J mice; chow fed C57/BL6J, IP, vs PBS",higher
